What was measured:
[1] = molecular target: Acetylcholinesterase (Electrophorus electricus, UniProt O42275); assay: Inhibition of Electrophorus electricus AChE using acetylthiocholine iodide as substrate preincubated for 20mins before the addition of substrate by Ellman's method
[2] = molecular target: Cholinesterase (Equus caballus, UniProt P81908); assay: Inhibition of equine serum BChE using butyrylthiocholine iodide as substrate preincubated for 20mins before the addition of substrate by Ellman's method
Sequence of Cholinesterase (P81908 whole entry): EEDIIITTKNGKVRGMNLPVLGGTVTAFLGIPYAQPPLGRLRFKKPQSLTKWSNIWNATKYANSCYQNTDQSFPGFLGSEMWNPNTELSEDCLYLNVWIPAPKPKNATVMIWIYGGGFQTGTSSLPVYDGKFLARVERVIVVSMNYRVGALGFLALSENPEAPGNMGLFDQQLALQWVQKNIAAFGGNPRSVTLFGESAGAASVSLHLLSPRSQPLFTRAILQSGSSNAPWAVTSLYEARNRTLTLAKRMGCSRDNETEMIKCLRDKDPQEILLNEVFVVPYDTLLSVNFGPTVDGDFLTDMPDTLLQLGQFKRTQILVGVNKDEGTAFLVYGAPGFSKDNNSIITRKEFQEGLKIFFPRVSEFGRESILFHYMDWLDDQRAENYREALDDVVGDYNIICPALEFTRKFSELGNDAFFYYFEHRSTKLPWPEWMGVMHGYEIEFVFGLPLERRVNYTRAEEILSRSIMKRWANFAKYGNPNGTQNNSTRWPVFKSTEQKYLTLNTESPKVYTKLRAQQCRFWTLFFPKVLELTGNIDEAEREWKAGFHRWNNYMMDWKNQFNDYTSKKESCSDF

Sequence of Acetylcholinesterase (O42275 whole entry): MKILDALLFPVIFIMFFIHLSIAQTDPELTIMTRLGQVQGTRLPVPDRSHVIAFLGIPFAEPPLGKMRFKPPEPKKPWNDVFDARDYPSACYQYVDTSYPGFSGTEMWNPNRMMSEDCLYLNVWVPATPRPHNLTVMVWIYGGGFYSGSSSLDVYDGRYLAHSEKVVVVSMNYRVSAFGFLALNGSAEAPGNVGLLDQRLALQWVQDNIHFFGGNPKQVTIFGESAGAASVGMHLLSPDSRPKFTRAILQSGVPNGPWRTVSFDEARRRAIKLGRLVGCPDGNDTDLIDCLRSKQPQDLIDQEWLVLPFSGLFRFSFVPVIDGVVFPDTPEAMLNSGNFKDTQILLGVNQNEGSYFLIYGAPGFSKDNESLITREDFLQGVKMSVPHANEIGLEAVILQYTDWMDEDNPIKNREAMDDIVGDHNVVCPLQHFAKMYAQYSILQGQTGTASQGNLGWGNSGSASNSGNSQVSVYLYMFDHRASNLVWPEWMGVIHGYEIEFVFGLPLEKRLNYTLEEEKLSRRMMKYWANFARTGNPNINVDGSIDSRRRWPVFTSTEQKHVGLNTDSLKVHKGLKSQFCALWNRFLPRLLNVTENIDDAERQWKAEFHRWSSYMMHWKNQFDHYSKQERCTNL

Structure (SMILES) | Ki ([1]; read-out: Ki) [µM] | Ki ([2]; read-out: Ki) [µM] | Ki [1] | Ki [2] | IC50 [1] [µM]
CC1(C)CC[C@]2(C(=O)OCCCCBr)CC[C@]3(C)C(=CC[C@@H]4[C@@]5(C)C[C@@H](O)[C@H](O)C(C)(C)[C@@H]5CC[C@]43C)[C@@H]2C1 | > 10 | > 10 |  |  | 
CCCCCCCCCCCCOC(=O)[C@]12CCC(C)(C)C[C@H]1C1=CC[C@@H]3[C@@]4(C)C[C@@H](O)[C@H](O)C(C)(C)[C@@H]4CC[C@@]3(C)[C@]1(C)CC2 |  |  | ND(Insoluble) | ND(Insoluble) | 
CC(=O)O[C@@H]1C[C@]2(C)[C@H]3CC=C4[C@@H]5CC(C)(C)CC[C@]5(C(N)=O)CC[C@@]4(C)[C@]3(C)CC[C@H]2C(C)(C)[C@H]1OC(C)=O | > 20 | > 20 |  |  | 
C#CCNC(=O)[C@]12CCC(C)(C)C[C@H]1C1=CC[C@@H]3[C@@]4(C)C[C@@H](O)[C@H](O)C(C)(C)[C@@H]4CC[C@@]3(C)[C@]1(C)CC2 | > 20 | > 20 |  |  | 
CC(=O)O[C@H]1C[C@]2(C)[C@H]3CC=C4[C@@H]5CC(C)(C)CC[C@]5(C(=O)O)CC[C@@]4(C)[C@]3(C)CC[C@H]2C(C)(C)[C@H]1OC(C)=O | > 20 | > 20 |  |  | 
CC1(C)CC[C@]2(C(=O)OCc3ccc(Cl)cc3)CC[C@]3(C)C(=CC[C@@H]4[C@@]5(C)C[C@@H](O)[C@H](O)C(C)(C)[C@@H]5CC[C@]43C)[C@@H]2C1 | > 30 | > 30 |  |  | 
C=CCNC(=O)[C@]12CCC(C)(C)C[C@H]1C1=CC[C@@H]3[C@@]4(C)C[C@@H](O)[C@H](O)C(C)(C)[C@@H]4CC[C@@]3(C)[C@]1(C)CC2 | > 20 | > 20 |  |  | 
CC1(C)CC[C@]2(C(=O)NCc3ccccc3)CC[C@]3(C)C(=CC[C@@H]4[C@@]5(C)C[C@@H](O)[C@H](O)C(C)(C)[C@@H]5CC[C@]43C)[C@@H]2C1 | > 10 |  |  |  | 
COC(=O)[C@]12CCC(C)(C)C[C@H]1C1=CC[C@@H]3[C@@]4(C)C[C@@H](OS(N)(=O)=O)[C@H](O)C(C)(C)[C@@H]4CC[C@@]3(C)[C@]1(C)CC2 | > 40 | > 40 |  |  | 
C#CCNC(=O)[C@]12CCC(C)(C)C[C@H]1C1=CC[C@@H]3[C@@]4(C)C[C@@H](OC(C)=O)[C@H](OC(C)=O)C(C)(C)[C@@H]4CC[C@@]3(C)[C@]1(C)CC2 | 8.14 | > 14 |  |  | 15.1
CCCNC(=O)[C@]12CCC(C)(C)C[C@H]1C1=CC[C@@H]3[C@@]4(C)C[C@@H](OC(C)=O)[C@H](OC(C)=O)C(C)(C)[C@@H]4CC[C@@]3(C)[C@]1(C)CC2 | > 6 | > 6 |  |  | 
CCCCCCCCCCCCCCCCCCOC(=O)[C@]12CCC(C)(C)C[C@H]1C1=CC[C@@H]3[C@@]4(C)C[C@@H](O)[C@H](O)C(C)(C)[C@@H]4CC[C@@]3(C)[C@]1(C)CC2 |  |  | ND(Insoluble) | ND(Insoluble) | 
C=CCNC(=O)[C@]12CCC(C)(C)C[C@H]1C1=CC[C@@H]3[C@@]4(C)C[C@@H](OC(C)=O)[C@H](OC(C)=O)C(C)(C)[C@@H]4CC[C@@]3(C)[C@]1(C)CC2 | > 20 | > 20 |  |  | 
CC(=O)O[C@@H]1C[C@]2(C)[C@H]3CC=C4[C@@H]5CC(C)(C)CC[C@]5(C(=O)O)CC[C@@]4(C)[C@]3(C)CC[C@H]2C(C)(C)[C@H]1OC(C)=O | > 10 | > 10 |  |  | 
CC1(C)CC[C@]2(C(=O)NCc3ccccc3)CC[C@]3(C)C(=CC[C@@H]4[C@@]5(C)C[C@H](OC(=O)CCl)[C@H](OC(=O)CCl)C(C)(C)[C@@H]5CC[C@]43C)[C@@H]2C1 | 6.25 |  |  |  | 15.3
CC1(C)CC[C@]2(C(=O)NCc3ccccc3)CC[C@]3(C)C(=CC[C@@H]4[C@@]5(C)C[C@@H](OC(=O)CCl)[C@H](OC(=O)CCl)C(C)(C)[C@@H]5CC[C@]43C)[C@@H]2C1 | 25.1 |  |  |  | 20
CC(=O)O[C@H]1C[C@]2(C)[C@H]3CC=C4[C@@H]5CC(C)(C)CC[C@]5(C(=O)NCc5ccccc5)CC[C@@]4(C)[C@]3(C)CC[C@H]2C(C)(C)[C@H]1OC(C)=O | > 10 |  |  |  | 

Source: ChEMBL document CHEMBL3779826, “Converting maslinic acid into an effective inhibitor of acylcholinesterases” (Eur J Med Chem, 2015)
